Patent publication US12421226B2, “Heteroaryl compounds as necrosis inhibitors, composition and method using the same” (Accro Bioscience (HK), priority 2019, dated 2025)
pIC50: −log10 of the molar value. Where a name gives a salt, the structure may show the parent alone.

These compounds were tested on HT29 cells (assay: Necroptosis inhibition in HT29 cell assay (TNF-α/Smac mimetic/z-VAD induced, cell viability)). Details: Homo sapiens, HT-29, 1 h pre-treatment with compound, then TNF-α 40 ng/mL + Smac mimetic 100 nM + z-VAD 20 μM for 48 hours.
Format: cell-based
Procedure: 1. Compounds Tested for Necroptosis Inhibition Activities in HT29 Cell Assay
(§1) For this assay, HT29 cells were added to 96-well plates and then were pre-treated with 10 μM of the test compound for one hour. Then the cells were treated with tumor necrosis factor alpha (TNF-α, 40 ng/mL), Smacmimetic (cIAP inhibitor) (100 nM) and z-VAD (capase inhibitor, from calbiochem) (20 μM) for 48 hours, and the viability of cells was quantified. DMSO pretreatment group was used as negative controls, Nec-1 (known necroptosis inhibitor, from Biomol) pretreatment group was used as positive controls.

SMILES | pIC50
CC(=O)Nc1nc2ccc(-c3cnc4ccn(C(=O)OC5CCCCC5)c4c3)cc2s1 [Compound C1, cyclohexyl 6-(2-acetamido-1,3-benzothiazol-6-yl)pyrrolo[3,2-b]pyridine-1-carboxylate] | 7.37
CC(=O)Nc1nc2ccc(-c3cnc4ncn(C(=O)OC5CCCCC5)c4c3)cc2s1 [Compound C2, cyclohexyl 6-(2-acetamido-1,3-benzothiazol-6-yl)imidazo[4,5-b]pyridine-1-carboxylate] | 4.96
O=C(Nc1nc2ccc(-c3cnc4ccn(C(=O)OC5CCOCC5)c4c3)nc2s1)C1CC1 [Compound C3, tetrahydropyran-4-yl 6-[2-(cyclopropanecarbonylamino)thiazolo[5,4-b]pyridin-5-yl]pyrrolo[3,2-b]pyridine-1-carboxylate] | 8.02
O=C(Nc1nc2ccc(-c3cnc4ccn(C(=O)OC5CCC(F)(F)CC5)c4c3)cc2s1)C1CC1 [Compound C4, (4,4-difluorocyclohexyl) 6-[2-(cyclopropanecarbonylamino)-1,3-benzothiazol-6-yl]pyrrolo[3,2-b]pyridine-1-carboxylate] | 7.08
O=C(Nc1nc2ccc(-c3cnc4ccn(C(=O)OC5CCOCC5)c4c3)cc2s1)C1CC1 [Compound C5, tetrahydropyran-4-yl 6-[2-(cyclopropanecarbonylamino)-1,3-benzothiazol-6-yl]pyrrolo[3,2-b]pyridine-1-carboxylate] | 8.25
CNC(=O)Nc1nc2ccc(-c3cnc4ccn(C(=O)OC5CCOCC5)c4c3)cc2s1 [Compound C7, tetrahydropyran-4-yl 6-[2-(methylcarbamoylamino)-1,3-benzothiazol-6-yl]pyrrolo[3,2-b]pyridine-1-carboxylate] | 7.49
O=C(NC1CCOCC1)c1c[nH]c2ncc(-c3ccc4nc(NC(=O)C5CC5)sc4c3)cc12 [Compound C9, 5-[2-(cyclopropanecarbonylamino)-1,3-benzothiazol-6-yl]-N-tetrahydropyran-4-yl-1H-pyrrolo[2,3-b]pyridine-3-carboxamide] | 5.28
O=C(NC1CCOCC1)c1n[nH]c2ncc(-c3ccc4nc(NC(=O)C5CC5)sc4c3)cc12 [Compound C10, 5-[2-(cyclopropanecarbonylamino)-1,3-benzothiazol-6-yl]-N-tetrahydropyran-4-yl-1H-pyrazolo[3,4-b]pyridine-3-carboxamide] | 4.92
O=C(Nc1nc2ccc(-c3cnc4cnn(C(=O)OC5CCOCC5)c4c3)cc2s1)C1CC1 [Compound C11, tetrahydropyran-4-yl 6-[2-(cyclopropanecarbonylamino)-1,3-benzothiazol-6-yl]pyrazolo[4,3-b]pyridine-1-carboxylate] | 5.39
O=C(NC1CCOCC1)c1cccc2ncc(-c3ccc4nc(NC(=O)C5CC5)sc4c3)cc12 [Compound C13, 3-[2-(cyclopropanecarbonylamino)-1,3-benzothiazol-6-yl]-N-tetrahydropyran-4-yl-quinoline-5-carboxamide] | 4.89
O=C(Nc1nc2ccc(-c3cnc4ccn(C(=O)OC5CCCCC5)c4c3)cc2s1)C1CC1 [Compound C15] | 8.15
CNC(=O)Nc1nc2ccc(-c3cnc4ccn(C(=O)OC5CCCCC5)c4c3)cc2s1 [Compound C16, cyclohexyl 6-[2-(methylcarbamoylamino)-1,3-benzothiazol-6-yl]pyrrolo[3,2-b]pyridine-1-carboxylate] | 7.60
O=C(Nc1cn2cc(-c3cnc4ccn(C(=O)OC5CCCCC5)c4c3)ccc2n1)C1CC1 [Compound C17] | 7.80
CC(=O)Nc1nc2ccc(-c3cnc4scc(C(=O)NC5CCCCC5)c4c3)cc2s1 [Compound C19, 5-(2-acetamido-1,3-benzothiazol-6-yl)-N-cyclohexyl-thieno[2,3-b]pyridine-3-carboxamide] | 7.96
O=C(Nc1nc2ccc(-c3cnc4ccn(C(=O)NC5CCOCC5)c4c3)cc2s1)C1CC1 [Compound C21, 6-[2-(cyclopropanecarbonylamino)-1,3-benzothiazol-6-yl]-N-tetrahydropyran-4-yl-pyrrolo[3,2-b]pyridine-1-carboxamide] | 7.66
CC(=O)Nc1nc2ccc(-c3cnc4snc(C(=O)NC5CCCCC5)c4c3)cc2s1 [Compound C22, 5-(2-acetamido-1,3-benzothiazol-6-yl)-N-cyclohexyl-isothiazolo[5,4-b]pyridine-3-carboxamide] | 7.46

SMILES | pIC50
CCC(CC)OC(=O)n1ccc2ncc(-c3ccc4nc(NC(=O)C5CC5)sc4c3)cc21 [Compound C24, 1-ethylpropyl 6-[2-(cyclopropanecarbonylamino)-1,3-benzothiazol-6-yl]pyrrolo[3,2-b]pyridine-1-carboxylate] | 7.48
O=C(Nc1nc2ccc(-c3cnc4ccn(C(=O)CC5CCCCC5)c4c3)cc2s1)C1CC1 [Compound C25, N-[6-[1-(2-cyclohexylacetyl)pyrrolo[3,2-b]pyridin-6-yl]-1,3-benzothiazol-2-yl]cyclopropanecarboxamide] | 7.54
CCC(=O)Nc1nc2ccc(-c3cnc4ccn(C(=O)OC5CCCCC5)c4c3)cc2s1 [Compound C26, cyclohexyl 6-[2-(propanoylamino)-1,3-benzothiazol-6-yl]pyrrolo[3,2-b]pyridine-1-carboxylate] | 7.30
CNC(=O)Nc1nc2ccc(-c3cnc4snc(C(=O)NC5CCCCC5)c4c3)cc2s1 [Compound C27, N-cyclohexyl-5-[2-(methylcarbamoylamino)-1,3-benzothiazol-6-yl]isothiazolo[5,4-b]pyridine-3-carboxamide] | 7.48
CNCC(C)NC(=O)c1csc2ncc(-c3ccc4nc(NC(=O)C5CC5)sc4c3)cc12 (centres unmarked) [Compound C28, 5-[2-(cyclopropanecarbonylamino)-1,3-benzothiazol-6-yl]-N-[1-methyl-2-(methylamino)ethyl]thieno[2,3-b]pyridine-3-carboxamide] | 6.42
CCOC(=O)Nc1nc2ccc(-c3cnc4snc(C(=O)NC5CCCCC5)c4c3)cc2s1 [Compound C29, ethyl N-[6-[3-(cyclohexylcarbamoyl)isothiazolo[5,4-b]pyridin-5-yl]-1,3-benzothiazol-2-yl]carbamate] | 8.51
CCC(CC)NC(=O)c1nsc2ncc(-c3ccc4nc(NC(=O)C5CC5)sc4c3)cc12 [Compound C31, 5-[2-(cyclopropanecarbonylamino)-1,3-benzothiazol-6-yl]-N-(1-ethylpropyl)isothiazolo[5,4-b]pyridine-3-carboxamide] | 7.96
CNCC(C)NC(=O)c1nsc2ncc(-c3ccc4nc(NC(=O)C5CC5)sc4c3)cc12 (centres unmarked) [Compound C32, 5-[2-(cyclopropanecarbonylamino)-1,3-benzothiazol-6-yl]-N-[1-methyl-2-(methylamino)ethyl]isothiazolo[5,4-b]pyridine-3-carboxamide] | 5.85
CCOC(=O)Nc1nc2ccc(-c3cnc4ccn(C(=O)OC5CCCCC5)c4c3)cc2s1 [Compound C34, cyclohexyl 6-[2-(ethoxycarbonylamino)-1,3-benzothiazol-6-yl]pyrrolo[3,2-b]pyridine-1-carboxylate] | 6.82
O=C(NC1CCOCC1)c1nsc2ncc(-c3ccc4nc(NC(=O)C5CC5)cn4c3)cc12 [Compound C35, 5-[2-(cyclopropanecarbonylamino)imidazo[1,2-a]pyridin-6-yl]-N-tetrahydropyran-4-yl-isothiazolo[5,4-b]pyridine-3-carboxamide] | 6.80
CNCC(C)OC(=O)n1ccc2ncc(-c3ccc4nc(NC(=O)C5CC5)sc4c3)cc21 (centres unmarked) [Compound C36, [1-methyl-2-(methylamino)ethyl] 6-[2-(cyclopropanecarbonylamino)-1,3-benzothiazol-6-yl]pyrrolo[3,2-b]pyridine-1-carboxylate, hydrochloride salt] | 4.80
CCC(CC)NC(=O)c1csc2ncc(-c3ccc4nc(NC(=O)C5CC5)sc4c3)cc12 [Compound C37, 5-[2-(cyclopropanecarbonylamino)-1,3-benzothiazol-6-yl]-N-(1-ethylpropyl)thieno[2,3-b]pyridine-3-carboxamide] | 8.49
O=C(NC1CCC(F)(F)CC1)c1csc2ncc(-c3ccc4nc(NC(=O)C5CC5)sc4c3)cc12 [Compound C38, 5-[2-(cyclopropanecarbonylamino)-1,3-benzothiazol-6-yl]-N-(4,4-difluorocyclohexyl)thieno[2,3-b]pyridine-3-carboxamide] | 8.74
CCOC(=O)Nc1nc2ccc(-c3cnc4scc(C(=O)NC5CCCCC5)c4c3)cc2s1 [Compound C39, ethyl N-[6-[3-(cyclohexylcarbamoyl)thieno[2,3-b]pyridin-5-yl]-1,3-benzothiazol-2-yl]carbamate] | 7.32
O=C(NC1CCOCC1)c1csc2ncc(-c3ccc4nc(NC(=O)C5CC5)cn4c3)cc12 [Compound C40, 5-[2-(cyclopropanecarbonylamino)imidazo[1,2-a]pyridin-6-yl]-N-tetrahydropyran-4-yl-thieno[2,3-b]pyridine-3-carboxamide] | 7.22
O=C(NC1CCCCC1)c1csc2ncc(-c3ccc4nc(NC(=O)C5CC5)cn4c3)cc12 [Compound C41, N-cyclohexyl-5-[2-(cyclopropanecarbonylamino)imidazo[1,2-a]pyridin-6-yl]thieno[2,3-b]pyridine-3-carboxamide] | 8.70

Each compound was assayed on L929 mouse skin fibroblast cells (assay: Necroptosis inhibition in L929 cell assay (TNF-α/z-VAD induced, cell viability by ATP levels)). Details: Mus musculus, 1 h pre-treatment with compound, then TNF-α 40 ng/mL + z-VAD 20 μM for 48 hours.
Format: cell-based
Procedure: 2. Compounds Tested for Necroptosis Inhibition Activities in L929 Cell Assay
as §1, with “Mouse L929 mouse skin fibroblast” for “For this assay, HT29”, “TNF-α (40 ng/mL, lab-made)” for “tumor necrosis factor alpha (TNF-α, 40 ng/mL), Smacmimetic (cIAP inhibitor) (100 nM)”, “quantified by detecting adenosine triphosphate (ATP) levels.” for “quantified.”

SMILES | pIC50
O=C(Nc1nc2ccc(-c3cnc4ccn(C(=O)OC5CCOCC5)c4c3)nc2s1)C1CC1 [Compound C3, tetrahydropyran-4-yl 6-[2-(cyclopropanecarbonylamino)thiazolo[5,4-b]pyridin-5-yl]pyrrolo[3,2-b]pyridine-1-carboxylate] | 7.14
O=C(Nc1nc2ccc(-c3cnc4ccn(C(=O)OC5CCC(F)(F)CC5)c4c3)cc2s1)C1CC1 [Compound C4, (4,4-difluorocyclohexyl) 6-[2-(cyclopropanecarbonylamino)-1,3-benzothiazol-6-yl]pyrrolo[3,2-b]pyridine-1-carboxylate] | 8.49
O=C(Nc1nc2ccc(-c3cnc4ccn(C(=O)OC5CCOCC5)c4c3)cc2s1)C1CC1 [Compound C5, tetrahydropyran-4-yl 6-[2-(cyclopropanecarbonylamino)-1,3-benzothiazol-6-yl]pyrrolo[3,2-b]pyridine-1-carboxylate] | 7.77
